The supplement of paper PMC11208160

Test: recombinant UMI read abundance after kanamycin selection (control-corrected) (log10(CPM+1)); higher = more efficient recombination; extreme values may be limits of the assay; sequences stand for … in AGTGCAGAGAAAATCGGCCAGTTTTCTCTGCCTGCAGTCCGCATGCCGTGGGACCCCTTGGGTTCTAACCTGTTGCCTAGATTTATGCAGCGGACTGCCTTTCTCCCAAAGTGATAAACCGG…AGGTTGGTTTCACT; site = the 11-nt donor
Outline: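 Sequenced counts of recombinant UMIs were turned into CPM, averaged across replicates and scaled with control-derived factors. The reported figure is log10(CPM+1). Those UMIs, each 12 nt long, tagged donor and donor-binding-loop pairs on a plasmid with a promoterless kanamycin gene, screened as a pool in Escherichia coli with IPTG (0.07 mM) plus kanamycin or without selection.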
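Note: IS621 bridge recombinase in Escherichia coli cells against a fixed T5 target plasmid.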

Sequence	recombinant UMI read abundance (log10)
AGGCTTTCATGGACCGGTTTTCCCGGTAATCCGTATTTGAC (site AGGCTTTCTGT)	0.502
AGGCTTTCATGGACCGGTTTTCCCGGTAATCCGTATTTGAC (site AGTCTTTCTGT)	0
AGGCTTTCATGGACCGGTTTTCCCGGTAATCCGTATTTGGC (site AGGCTTTCTGC)	1.61
AGGGATCCATGGACCGGTTTTCCCGGTAATCCGTATTTGAG (site AGGGATCCTCT)	0.635
AGGGCAACATGGACCGGTTTTCCCGGTAATCCGTATTTGTT (site AGGGCAACTAA)	0.85
AGGGGTTCATGGACCGGTTTTCCCGGTAATCCGTATTTGTC (site AGGGGTTCTGA)	3.19
AGGGTACCATGGACCGGTTTTCCCGGTAATCCGTATTTGTA (site AGGGTACCTTA)	0.0065
AGGGTTACATGGACCGGTTTTCCCGGTAATCCGTATTTGGG (site AGGGTTACTCC)	0.175
AGGTACGCATGGACCGGTTTTCCCGGTAATCCGTATTTGCC (site AGGTACGCTGG)	2.36
AGGTCGGCATGGACCGGTTTTCCCGGTAATCCGTATTTGTA (site AGGTCGGCTTA)	1.01
AGGTTACCATGGACCGGTTTTCCCGGTAATCCGTATTTGTG (site AGGTTACCTCA)	0.0116
AGGTTACCATGGACCGGTTTTCCCGGTAATCCGTATTTGTG (site AGGTTCCCTCA)	0
AGGTTACCATGGACCGGTTTTCCCGGTAATCCGTATTTGTG (site AGGTTGCCTCA)	0.00949
AGGTTACCATGGACCGGTTTTCCCGGTAATCCGTATTTGTG (site AGGTTTCCTCA)	0.00461
AGGTTCCCATGGACCGGTTTTCCCGGTAATCCGTATTTGTT (site AGGTTCCCTAA)	0
AGGTTCCCATGGACCGGTTTTCCCGGTAATCCGTATTTGTT (site AGGTTCCCTCA)	0.0252
AGGTTCCCATGGACCGGTTTTCCCGGTAATCCGTATTTGTT (site AGGTTCCCTGA)	0
AGGTTCCCATGGACCGGTTTTCCCGGTAATCCGTATTTGTT (site AGGTTCCCTTA)	0
AGGTTCGCATGGACCGGTTTTCCCGGTAATCCGTATTTGTG (site AGGTTCACTCA)	0.217
AGGTTCGCATGGACCGGTTTTCCCGGTAATCCGTATTTGTG (site AGGTTCCCTCA)	0.015
AGGTTCGCATGGACCGGTTTTCCCGGTAATCCGTATTTGTG (site AGGTTCGCTCA)	0.666
AGGTTCGCATGGACCGGTTTTCCCGGTAATCCGTATTTGTG (site AGGTTCTCTCA)	0
AGGTTGACATGGACCGGTTTTCCCGGTAATCCGTATTTGCG (site AGGTTGACTCG)	2
AGTAAATCATGGACCGGTTTTCCCGGTAATCCGTATTTGGG (site GCCGTTCCTGA)	0
AGTAACACATGGACCGGTTTTCCCGGTAATCCGTATTTGCA (site AGGAAGACTTG)	0

Sequence	recombinant UMI read abundance (log10)
AGTAACACATGGACCGGTTTTCCCGGTAATCCGTATTTGCA (site AGTAACACTTG)	2.13
AGTAACGCATGGACCGGTTTTCCCGGTAATCCGTATTTGCA (site AGTAACGCTTG)	2.29
AGTACCACATGGACCGGTTTTCCCGGTAATCCGTATTTGTT (site AGTACCACTAA)	0.274
AGTACGTCATGGACCGGTTTTCCCGGTAATCCGTATTTGTT (site AGTACGTCTAA)	0.258
AGTACGTCATGGACCGGTTTTCCCGGTAATCCGTATTTGTT (site CGTACGTCTAA)	0.552
AGTACGTCATGGACCGGTTTTCCCGGTAATCCGTATTTGTT (site GGTACGTCTAA)	0.198
AGTACGTCATGGACCGGTTTTCCCGGTAATCCGTATTTGTT (site TGTACGTCTAA)	0.212
AGTCCCACATGGACCGGTTTTCCCGGTAATCCGTATTTGAA (site AGTCCCACTTT)	0.752
AGTCCGCCATGGACCGGTTTTCCCGGTAATCCGTATTTGGG (site AGTCCGCCTCC)	0.015
AGTCGAGCATGGACCGGTTTTCCCGGTAATCCGTATTTGAG (site AGTCGAGCTCT)	1.6
AGTCTTACATGGACCGGTTTTCCCGGTAATCCGTATTTGCG (site AGTCTTACTCG)	1.32
AGTGAATCATGGACCGGTTTTCCCGGTAATCCGTATTTGAG (site AGTGAATCTCT)	2.17
AGTGCTGCATGGACCGGTTTTCCCGGTAATCCGTATTTGCA (site AGTGCTGCTTG)	1.21
AGTGGAACATGGACCGGTTTTCCCGGTAATCCGTATTTGTT (site AGTGGAACTAA)	1.56
AGTGGAACATGGACCGGTTTTCCCGGTAATCCGTATTTGTT (site CGTGGAACTAA)	0.295
AGTGGAACATGGACCGGTTTTCCCGGTAATCCGTATTTGTT (site GGTGGAACTAA)	0.00617
AGTGGAACATGGACCGGTTTTCCCGGTAATCCGTATTTGTT (site TGTGGAACTAA)	0.00958
AGTGGGTCATGGACCGGTTTTCCCGGTAATCCGTATTTGCA (site AGTGGGTCTTG)	2.92
AGTGTATCATGGACCGGTTTTCCCGGTAATCCGTATTTGCA (site ACAGTATCTTG)	1.69
AGTGTATCATGGACCGGTTTTCCCGGTAATCCGTATTTGCA (site AGTGTATCTTG)	2.25
AGTGTCACATGGACCGGTTTTCCCGGTAATCCGTATTTGGC (site AGTGTCACTGC)	2.62
AGTGTCTCATGGACCGGTTTTCCCGGTAATCCGTATTTGCA (site AGTGTCTCTTG)	3.07
AGTTAGACATGGACCGGTTTTCCCGGTAATCCGTATTTGAG (site AGTTAGACTCT)	1.23
AGTTAGACATGGACCGGTTTTCCCGGTAATCCGTATTTGAG (site CGTTAGACTCT)	1.06
AGTTAGACATGGACCGGTTTTCCCGGTAATCCGTATTTGAG (site GGTTAGACTCT)	0.353

Sequence	recombinant UMI read abundance (log10)
AGTTAGACATGGACCGGTTTTCCCGGTAATCCGTATTTGAG (site TGTTAGACTCT)	0.674
AGTTATTCATGGACCGGTTTTCCCGGTAATCCGTATTTGCA (site AGTTATTCTTG)	2.11
AGTTCAGCATGGACCGGTTTTCCCGGTAATCCGTATTTGGG (site AGATCAGCTCC)	0.0116
AGTTCAGCATGGACCGGTTTTCCCGGTAATCCGTATTTGGG (site AGCTCAGCTCC)	0.0322
AGTTCAGCATGGACCGGTTTTCCCGGTAATCCGTATTTGGG (site AGGTCAGCTCC)	0.0161
AGTTCAGCATGGACCGGTTTTCCCGGTAATCCGTATTTGGG (site AGTTCAGCTCC)	0.017
AGTTCTGCATGGACCGGTTTTCCCGGTAATCCGTATTTGTT (site AGTTCTGCTAA)	0.0478
AGTTGATCATGGACCGGTTTTCCCGGTAATCCGTATTTGTC (site AGTTGATCTGA)	1.94
ATAAAATCATGGACCGGTTTTCCCGGTAATCCGTATTTGCC (site ATAAAATCTGG)	1.66
ATAAAGCCATGGACCGGTTTTCCCGGTAATCCGTATTTGAC (site ATAAAGCCTGT)	0
ATAAAGCCATGGACCGGTTTTCCCGGTAATCCGTATTTGAC (site ATAACGCCTGT)	0
ATAAAGCCATGGACCGGTTTTCCCGGTAATCCGTATTTGAC (site ATAAGGCCTGT)	0
ATAAAGCCATGGACCGGTTTTCCCGGTAATCCGTATTTGAC (site ATAATGCCTGT)	0
ATAACAACATGGACCGGTTTTCCCGGTAATCCGTATTTGAA (site ATAACAACTTT)	1.46
ATAACAGCATGGACCGGTTTTCCCGGTAATCCGTATTTGTT (site ATAACAGCTAA)	1.92
ATAACGCCATGGACCGGTTTTCCCGGTAATCCGTATTTGAC (site ATAAAGCCTGT)	0
ATAACGCCATGGACCGGTTTTCCCGGTAATCCGTATTTGAC (site ATAACGCCTGT)	0.696
ATAACGCCATGGACCGGTTTTCCCGGTAATCCGTATTTGAC (site ATAAGGCCTGT)	0
ATAACGCCATGGACCGGTTTTCCCGGTAATCCGTATTTGAC (site ATAATGCCTGT)	0
ATAAGACCATGGACCGGTTTTCCCGGTAATCCGTATTTGAC (site ATAAGACCTGT)	0
ATAAGACCATGGACCGGTTTTCCCGGTAATCCGTATTTGAC (site ATAAGCCCTGT)	0
ATAAGACCATGGACCGGTTTTCCCGGTAATCCGTATTTGAC (site ATAAGGCCTGT)	0
ATAAGACCATGGACCGGTTTTCCCGGTAATCCGTATTTGAC (site ATAAGTCCTGT)	0
ATAAGGCCATGGACCGGTTTTCCCGGTAATCCGTATTTGAC (site AAAAGGCCTGT)	0
ATAAGGCCATGGACCGGTTTTCCCGGTAATCCGTATTTGAC (site ACAAGGCCTGT)	0
